Assay results published in US20090247495A1, “CU[…] AND USES THEREOF” (priority 2007, published 2009).
Entries after “also recorded” stand apart in the source; their conditions may differ.

How the values were obtained:
[1] = system: 59 human cancer cell lines; test: SRB growth inhibition, 59-NCI Cancer Cell Line Panel; type: cell-based; conditions: 48 hours, range over 59 cell lines
Source text: Human cancer cell lines from the 59-NCI Cancer Cell Line Panel including leukemia, melanoma and cancers of breast, brain, colon, lung, ovary, prostate and kidney, were purchased from the National Institute of Cancer (USA). The growth inhibition (GI50) of these cell lines treated with cucurbitacin B and cucurbitacin D in various concentrations was investigated.
59 human cancer cell lines were maintained in RPMI 1640 (Invitrogen Life Technologies, CA, USA) supplemented with 5% Fetal Bovine Serum, 2 mM L-glutamine and 1% Penicillin/Streptomycin (Invitrogen Life Technologies) at 37° C. with 5% CO2. All chemicals were purchased from Sigma (St. Louis, Mo., USA) unless specified otherwise.
Sulforhodamine B (SRB) assay was applied to determine the cytostatic effect of cucurbitacin B and cucurbitacin D. SRB is a dye that binds to cellular proteins and will be dissolved in base. The biomass of total protein can be measured at 520 nm using a plate reader.
Cells were inoculated into 96-well microtiter plates including “Time zero” (Tz) plates in 100 μl at cell concentrations from 5000 to 40,000 cells per well according to NCI guideline. The cells were incubated at 37° C. with 5% CO2 for 24 hours. […] Bound SRB was solubilized with 100-200 ul per well of 10 mM trizma base and absorbance was measured at a wavelength of 520 nm. The percentage of growth inhibition was calculated as follows: […]

Stat3 [2] = test: Western blot of Stat3 activation in K562 cells; type: cell-based, human; conditions: 50 μM
Procedure: K562 leukemia cells were serum starved for 18 hours prior to cucurbitacin B treatment. The cells were incubated at a 75-mm culture flask filled with 10 ml growth medium (RPMI with 10% FBS and 1% PS) at the cell density of 1×10^5 cells/ml in the presence or absence of cucurbitacin B for various time intervals. The drug treatment were terminated by centrifugation at 1500 rpm for 5 minutes and the cells were rinsed twice with phosphate-buffered saline and lysed at 4° C. in a lysis buffer containing 50 mM Tris-HCl, pH7.5, […], 5 mM EDTA, 40 mM NaP2O7, 1% Triton X-100, 1 mM dithiothreitol, 200 μM Na3VO4, 100 μM phenylmethysufonyl fluoride, 2 μg/ml leupeptin, 4 μg/ml aprotinin and 0.7 μg/ml pepstatin. The insoluble protein lysate were removed by centrifugation for 10 minutes at 13000 rpm. Fifteen micrograms of protein lysate was resolved using SDS-polyacryamide gel electrophoresis (PAGE) (usually 8%-12% polyacrylamide gel) and then subjected to western blot anaylsis. Western blots were performed with antibodies specific for phosphorylated and total Stat3, c-Raf, Mek, and Erk. The blots were developed with the Enhanced Chemiluminescence Plus (ECL Plus) detection system (Amersham). • 6.1.7 GTPase Pull-Down Assay
15 μg cell lysate of each sample was separated in 8% SDS-PAGE followed by immuno-blotting with anti-Stat3 antibodies to detect the phosphorylated form of Stat3 as well as its total expression level.
Cells were serum starved for 18 hours followed by treated with 50 μM cucurbitacin B for 10 minutes, 30 minutes, 1 hour and 4 hours, respectively. 15 μg cell lysate of each sample was separated in 8% SDS-PAGE followed by immuno-blotting with anti-Stat3 antibodies to detect the phosphorylated form of Stat3 as well as its total expression level.

K562 cells = test: Cell morphology by microscopy, K562; type: cell-based, human; conditions: 48 hours
Procedure: 10^5/ml K562 cells were treated with cucurbitacin B in the presence of complete medium containing 10% FBS for 48 hours. The changes in cell morphology were visualized using Leica DMIL (Leica Microsystem). Cells were harvested and rinsed twice with ice-cold PBS (pH7.4) and a total 2.5×10^5 K562 cells were stained with 10 μl Annexin V and 10 μl propidium iodide in 100 μl 1×binding buffer for 15 minutes in dark and then subjected to apoptosis analysis with FACSCalibar Flow cytometer system (FACS Calibur BD Flow Cytometer). • 6.1.5 Flow Cytometry for Cell Cycle Analysis
After 48 hours of cucurbitacin B treatment, the cells were viewed using a Leica DMIL microscope at 400×magnification. […] However, the treated cells lost the rounded shape and shrank in size at the highest dose of cucurbitacin B used (80nM).

Stat3 [3] = test: Western blot of Stat3 activation in HepG2, HT29 and MCF-7 cells; type: cell-based, human
MAPK signaling pathway = test: Western blot of MAPK / cell cycle signaling proteins in HL60 cells; type: cell-based, human
Procedure: Control cells, as well as cells treated with cucurbitacin B or cucurbitacin D, were harvested and collected by centrifugation. Whole cell extracts were then prepared by lysing the cells using 4% sodium dodecyl sulfate (SDS) gel sample buffer. Cell extracts were boiled for 10 min and chilled on ice, subjected to 12% SDS-polyacrylamide gel electrophoresis, and transferred to a PVDF membrane. Each membrane was cut into to two pieces with one piece incubated at 4° C. overnight with antibodies against cell cycle signaling proteins, such as ERK, phosphorlated-ERK, p38, phosphorlated-p38, Cyclin E, Retinoblastoma, phosphalated-Retinoblastoma and c-myc, and apoptotic protein (PARP). β-actin was used as a control for protein loading. All antibodies were obtained from Cell signaling Technologies (USA). Then membranes were incubated at 37° C. for 1 h with secondary antibody conjugated with peroxidase, and the signal was detected using chemiluminescence detection reagent. The relative protein level was calculated as the ratio of the optical density of the protein of interest to that of β-actin.

CC(=O)OC(C)(C)/C=C/C(=O)[C@](C)(O)C1[C@H](O)C[C@@]2(C)C3CC=C4C(C[C@H](O)C(=O)C4(C)C)[C@]3(C)C(=O)C[C@]12C (stereo partly drawn) [cucurbitacin B]
GI50 [1]: 5.8 to 164 nM | inhibition on Stat3 activation (Stat3 [2]; 10 minutes to 30 minutes): No significant change | inhibition effect on Stat3 activation (Stat3 [2]; 1 hour to 4 hours): gradually increased at 1 hours and peak at 4 hours; also recorded: inhibited Stat3 phosphorylation | Stat3 activation (phosphorylated Stat3) (Stat3 [2]; 4 hours): significant inhibited | changes in cell morphology (K562 cells; 20 nM and 40 nM): increase in cell size | changes in cell morphology (K562 cells; 80 nM): shrinkage of cell size | Stat3 activation (Stat3 [3]; HepG2 cells and HT29 cells, 25 ug/ml, 30 minutes): inhibited significantly | Stat3 activation (Stat3 [3]; MCF-7 cells): no significant change | regulation of ERK, cyclin E, retinoblastoma phosphorylation and c-myc (MAPK signaling pathway): ERK activation, followed by cyclin E down-regulation, inhibition of retinoblastoma's phosphorylation, and ultimately down-regulation of c-myc
